This passage reports IC50 results from patent US7989633B2, “4-Chromenonyl-1,4-dihydropyridines and their use” (Bayer Schering Pharma Aktiengesellschaft, priority 2005, dated 2011).

What is called IC50 is the concentration at which inhibition is half-maximal.

The target in this test is T1, human mineralocorticoid receptor (MR) (Homo sapiens, UniProt P08235).
T1 construct: expressed in transfected cells
T1 sequence (P08235 734-984 limits assumed): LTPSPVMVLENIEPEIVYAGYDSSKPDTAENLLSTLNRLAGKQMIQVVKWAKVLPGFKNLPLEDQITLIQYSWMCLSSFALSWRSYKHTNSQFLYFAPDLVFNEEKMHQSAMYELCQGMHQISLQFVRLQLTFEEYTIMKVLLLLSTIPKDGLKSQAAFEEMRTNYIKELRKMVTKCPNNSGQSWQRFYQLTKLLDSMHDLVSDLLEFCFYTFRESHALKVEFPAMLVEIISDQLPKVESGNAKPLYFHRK
Put plainly: Cellular in vitro assay to determine the inhibitory MR activity (GAL4-MR chimera luciferase reporter in CHO K1 cells). It counts as cell-based. Conditions: GAL4-MR ligand-binding domain chimera in CHO K1 cells, agonist aldosterone. An excerpt: 1. Cellular In Vitro Assay to Determine the Inhibitory MR Activity and MR Selectivity Compared with Other Steroid Hormone Receptors
Antagonists of the human mineralocorticoid receptor (MR) are identified, and the activity of the compounds described herein is quantified with the aid of a recombinant cell line. The cell is originally derived from a hamster ovary epithelial cell (Chinese Hamster Ovary, CHO K1, ATCC: American Type Culture Collection, VA 20108, USA).
An established chimera system in which the ligand-binding domains of human steroid hormone receptors are fused to the DNA-binding domain of the yeast transcription factor GAL4 is used in this CHO K1 cell line. The GAL4-steroid hormone receptor chimeras produced in this way are cotransfected and stably expressed with a reporter construct in the CHO cells.
To generate the GAL4-steroid hormone receptor chimeras, the GAL4 DNA binding domain (amino acids 1-147) from the vector pFC2-dbd (from Stratagene) is cloned with the PCR-amplified ligand-binding domains of the mineralocorticoid receptor (MR, amino acids 734-985), of the glucocorticoid receptor (GR, amino acids 443-777), of the progesterone receptor (PR, amino acids 680-933) and of the androgen receptor (AR, amino acids 667-919) into the vector pIRES2 (from Clontech). The reporter construct, which comprises five copies of the GAL4 binding site upstream of a thymidine kinase promoter, leads to expression of firefly-luciferase (Photinus pyralis) after activation and binding of the GAL4-steroid hormone receptor chimeras by the respective specific agonists aldosterone (MR), dexamethasone (GR), progesterone (PR) and dihydrotestosterone (AR).
The MR, GR, PR and AR cells are plated out in medium (Optimem, 2.5% FCS, 2 mM glutamine, 10 mM HEPES) in 96- (or 384- or 1536-) well microtiter plates on the day before the assay and are kept in a cell incubator (96% humidity, 5% v/v CO2, 37° C.). On the day of the assay, the substances to be tested are taken up in the abovementioned medium and added to the cells. About 10 to 30 minutes after addition of the test substances, the respective specific agonists of the steroid hormone receptors are added. After a further incubation time of 5 to 6 hours, the luciferase activity is measured with the aid of a video camera. The measured relative light units as a function of the substance concentration result in a sigmoidal stimulation curve. The IC50 values are calculated with the aid of the GraphPad PRISM computer program (Version 3.02).
On the technique in general: A reporter such as luciferase makes a cellular process visible.

In turn, `CCOC(=O)C1=C(C)NC(C)=C(C(C)=O)C1c1cccc2c(=O)cc(C)oc12` (racemic) [Example 1 (Racemate), Ethyl 5-acetyl-2,6-dimethyl-4-(2-methyl-4-oxo-4H-chromen-8-yl)-1,4-dihydropyridine-3-carboxylate] gave an IC50 of 75 nM.
Then `CCOC(=O)C1=C(C)NC(C)=C(C(C)=O)C1c1cccc2c(=O)cc(C)oc12` (single isomer, unassigned) [Example 1 (Enantiomer 2), Ethyl 5-acetyl-2,6-dimethyl-4-(2-methyl-4-oxo-4H-chromen-8-yl)-1,4-dihydropyridine-3-carboxylate], with 43 nM; and `CC(=O)C1=C(C)NC(C)=C(C(=O)OC2CCCC2)C1c1cccc2c(=O)cc(C)oc12` (stereo not shown) [Example 2, Cyclopentyl 5-acetyl-2,6-dimethyl-4-(2-methyl-4-oxo-4H-chromen-8-yl)-1,4-dihydropyridine-3-carboxylate], with 22 nM.
Then `CC(=O)C1=C(C)NC(C)=C(C(=O)OC(C)C)C1c1cccc2c(=O)cc(C)oc12` (stereo not shown) [Example 3, Isopropyl 5-acetyl-2,6-dimethyl-4-(2-methyl-4-oxo-4H-chromen-8-yl)-1,4-dihydropyridine-3-carboxylate], with 39 nM; and `COC(=O)C1=C(C)NC(C)=C(C(C)=O)C1c1cccc2c(=O)cc(C)oc12` (stereo not shown) [Example 4, Methyl 5-acetyl-2,6-dimethyl-4-(2-methyl-4-oxo-4H-chromen-8-yl)-1,4-dihydropyridine-3-carboxylate], with 235 nM; and `CC1=C(C(=O)OC(C)C)C(c2cccc3c(=O)cc(C)oc23)C(C(=O)C(F)(F)F)=C(C)N1` (stereo not shown) [Example 8, Isopropyl 2,6-dimethyl-4-(2-methyl-4-oxo-4H-chromen-8-yl)-5-(trifluoroacetyl)-1,4-dihydro-pyridine-3-carboxylate], with 19 nM.
Then `CCOC(=O)C1=C(C)NC(C)=C(C(C)=O)C1c1ccc(F)c2c(=O)cc(C)oc12` (stereo not shown) [Example 11, Ethyl 5-acetyl-2,6-dimethyl-4-(5-fluoro-2-methyl-4-oxo-4H-chromen-8-yl)-1,4-dihydropyridine-3-carboxylate], with 74 nM.
`CCOC(=O)C1=C(C)NC(C)=C(C(=O)c2ccccc2)C1c1cccc2c(=O)cc(C)oc12` (stereo not shown) [Example 14, Ethyl 5-benzoyl-2,6-dimethyl-4-(2-methyl-4-oxo-4H-chromen-8-yl)-1,4-dihydropyridine-3-carboxylate] gave an IC50 of 104 nM.
Then `COC(=O)C1=C(C)NC(C)=C(C(=O)CC2CCC2)C1c1cccc2c(=O)cc(C)oc12` (stereo not shown) [Example 34, Methyl 5-(cyclobutylacetyl)-2,6-dimethyl-4-(2-methyl-4-oxo-4H-chromen-8-yl)-1,4-dihydro-pyridine-3-carboxylate], with 18 nM; and `COC(=O)C1=C(C)NC(C)=C(C(=O)c2ccc(C)cc2)C1c1cccc2c(=O)cc(C)oc12` (stereo not shown) [Example 37, Methyl 2,6-dimethyl-5-(4-methylbenzoyl)-4-(2-methyl-4-oxo-4H-chromen-8-yl)-1,4-dihydro-pyridine-3-carboxylate], with 27 nM.
